# From patent US20120156314A1, “11 beta, 13-DIHYDROHELENALIN DERIVATIVES AND USES THEREOF AS BOMBESIN RECEPTOR SUBTYPE 3 AGNOISTS” (VIOGENE-BIOTEK CORPORATION, priority 2010, published 2012)
# Where two headings read alike, the source gives them in different places.
# How the values were obtained:
# BRS3 = BRS3 (Homo sapiens, UniProt P32247); test: cell-based
# Text: Formation of the arrestin-receptor complex occurred as the agonist bind to the receptor and it is able to trace the translocation of this complex from plasma membrane to cytoplasm in a form of endocytoplamic vesicles. Monitoring the distribution and translocation of GFP-labeled arrestin in cell expressing BRS3, we are able to measure the ability of the crude extracts to activate BRS3.
# human BRS3 = biological target: T1, human BRS3 (Homo sapiens, UniProt P32247); test: Cytosolic Ca++ mobilization assay in U2OS cells expressing BRS3; format: cell-based; details: for magnitude of released calcium and time to reach the peak of the transient: dose response
# T1 construct: expressed in transfected cells; host or cells: U2OS
# T1 sequence (P32247 1-399): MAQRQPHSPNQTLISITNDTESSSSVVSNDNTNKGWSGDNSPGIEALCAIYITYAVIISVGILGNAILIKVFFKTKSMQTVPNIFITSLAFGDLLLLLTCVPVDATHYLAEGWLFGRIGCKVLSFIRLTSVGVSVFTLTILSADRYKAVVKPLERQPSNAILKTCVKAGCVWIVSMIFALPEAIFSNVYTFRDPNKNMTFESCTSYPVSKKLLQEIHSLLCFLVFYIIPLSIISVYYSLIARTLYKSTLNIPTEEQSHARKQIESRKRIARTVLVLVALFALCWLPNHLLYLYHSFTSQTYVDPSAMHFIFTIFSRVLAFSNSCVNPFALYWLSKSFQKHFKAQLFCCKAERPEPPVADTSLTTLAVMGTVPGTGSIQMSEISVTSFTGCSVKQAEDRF
# Procedure: Fluorescence was measured at dual excitation wavelengths of 340 nm and 380 nm, using an emission wavelength of 510 nm. Autofluorescence was corrected for by running a sample of unlabeled cells in identical experimental conditions.
# GRPR = GRPR (Homo sapiens, UniProt P30550); test: cell-based; details: Table 6
# NMBR = NMBR (Homo sapiens, UniProt P28336); test: cell-based; details: Table 6
# [1] = tested on: U2OS cells that does not express BRS3
# Procedure: After two washes with assay buffer, 2 ml of cell suspension were placed in a Delta PTI Scan 1 spectrofluorimeter (Photon Technology International, South Brunswick, N.J.) equipped with a stir bar and water bath (37° C.). Fluorescence was measured at dual excitation wavelengths of 340 nm and 380 nm, using an emission wavelength of 510 nm. Autofluorescence was corrected for by running a sample of unlabeled cells in identical experimental conditions.
# [2] = Table 5, U2OS cells expressing human BRS3, read-out: EC50 Ca++
# Sequence of GRPR (P30550 whole entry, species assumed): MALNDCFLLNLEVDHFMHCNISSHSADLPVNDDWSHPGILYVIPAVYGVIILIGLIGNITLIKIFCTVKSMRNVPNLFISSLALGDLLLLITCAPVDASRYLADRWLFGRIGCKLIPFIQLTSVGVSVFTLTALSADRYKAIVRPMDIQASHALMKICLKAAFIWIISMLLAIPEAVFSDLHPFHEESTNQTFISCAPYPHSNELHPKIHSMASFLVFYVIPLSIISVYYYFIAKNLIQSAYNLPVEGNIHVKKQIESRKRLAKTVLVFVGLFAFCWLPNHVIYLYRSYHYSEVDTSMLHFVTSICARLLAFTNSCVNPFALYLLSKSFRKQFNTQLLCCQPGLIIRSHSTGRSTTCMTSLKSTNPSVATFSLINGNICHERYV
# Sequence of NMBR (P28336 whole entry, species assumed): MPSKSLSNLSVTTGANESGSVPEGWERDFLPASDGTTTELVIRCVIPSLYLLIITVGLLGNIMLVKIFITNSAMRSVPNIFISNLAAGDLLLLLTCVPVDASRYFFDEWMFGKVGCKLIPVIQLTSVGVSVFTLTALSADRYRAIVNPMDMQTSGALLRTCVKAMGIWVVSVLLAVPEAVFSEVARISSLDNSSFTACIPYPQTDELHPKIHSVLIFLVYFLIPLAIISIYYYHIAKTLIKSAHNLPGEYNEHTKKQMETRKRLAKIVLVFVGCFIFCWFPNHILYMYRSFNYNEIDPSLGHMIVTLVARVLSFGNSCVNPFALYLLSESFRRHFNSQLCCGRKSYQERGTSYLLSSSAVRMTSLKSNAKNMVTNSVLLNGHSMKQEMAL
Compound,"EC50 (BRS3; EC50 Arrestin, Table 5)",EC50 (human BRS3),EC50 (GRPR),"EC50 (BRS3; EC50 BRS3, Table 6)",EC50 (NMBR),time of return of cytosolic calcium to basal levels (human BRS3; 6.8 μg/ml),time to maximal level of cytosolic calcium (human BRS3; 6.8 μg/ml),magnitude of released calcium and time to reach the peak of the transient (human BRS3),cytosolic Ca++ release in cells without BRS3 [1],EC50 (human BRS3; [2]),time of return of cytosolic calcium to basal levels (human BRS3; 25 μg/ml),time to maximal level of cytosolic calcium (human BRS3; 25 μg/ml)
"C=C(C)C(=O)O[C@H]1[C@H]2[C@@H](C[C@@H](C)[C@@H]3C=CC(=O)[C@]31C)OC(=O)[C@@H]2C [Compound 1, Arnicolide D]",2.8 µM,10 µM,,,,,,,,,,
"CC(C)C(=O)O[C@H]1[C@H]2[C@@H](C[C@@H](C)[C@@H]3C=CC(=O)[C@]31C)OC(=O)[C@@H]2C [Compound 2, Arnicolide C]",2.8 µM,12 µM,,,,,,,,,,
"CC=C(C)C(=O)OC1C2C(CC(C)C3C=CC(=O)C31C)OC(=O)C2C (centres unmarked) [Compound 3, Microhelenin C]",2 µM,11 µM,,,,,,,,,,
"CCC(C)C(=O)O[C@H]1[C@H]2[C@@H](C[C@@H](C)C3C=CC(=O)[C@]31C)OC(=O)[C@@H]2C (some centres unmarked) [Compound 4, Microhelenin B]",2.35 µM,4.2 µM,> 861 µM,3.73 µM,> 861 µM,1 min,13 s,concentration-dependent and saturable,not able to stimulated cytosolic Ca^++ release,,,
"CC(C)CC(=O)O[C@H]1[C@H]2[C@@H](C[C@@H](C)[C@@H]3C=CC(=O)[C@]31C)OC(=O)[C@@H]2C [Compound 5, Arnicolide B]",7.5 µM,20 µM,,,,,,,,,,
"CCC(C)C(=O)O[C@H]1[C@@H]2[C@H](C)C(=O)O[C@@H]2C[C@@H](C)C2[C@@H](O)CC(=O)[C@]21C (some centres unmarked) [Compound A, arnifoline]",2.7 µM,,> 1360 µM,2.73 µM,> 1360 µM,,,concentration-dependent and saturable,,2.6 µM,,
"CCC(C)C(=O)O[C@H]1[C@@H]2[C@H](C)C(=O)O[C@@H]2C[C@@H](C)C2[C@@H](C)CC(=O)[C@]21C (stereo partly drawn) [Compound B, 11α-13-dihydroarnifolin B]",14 µM,,> 686 µM,13.7 µM,> 823 µM,,,concentration-dependent and saturable,not able to stimulated cytosolic Ca^++ release,9.6 µM,1 min,13 s
